From patent publication US9187411B2, “Leukotriene B4 antagonist compound” (Eli Lilly and Company, priority 2012, dated 2015)
pIC50: −log10 of the molar value.

How the values were obtained:
[1] = biological target: T1, high-affinity (BLT1) LTB4 receptor (Homo sapiens, UniProt Q15722); experiment: FLIPR calcium release assay (LTB4-induced calcium mobilization); type: cell-based; conditions: CHO-K1 cells expressing BLT1, 8 nM LTB4, n of 2
T1 construct: expressed in transfected cells
Experimental: hBLT1/CHO-K1 Stable Xcell Line Preparations: Human BLT1 receptor DNA (National Center for Biotechnology Information (NCBI), Reference Sequence NM_181657) is synthesized and cloned into expression vector pcDNA3.1/Hygro(+) (Invitrogen V87020). The cDNA expression vector construct is transfected into Chinese hamster ovary (CHO-K1) cells (American Type Culture Collection (ATCC) CCL-61) using Lipofectamine 2000 (Invitrogen) as transfection reagent. Cells are cultured in selective Dulbecco's Modified Eagle Medium (DMEM) containing 200 μg/mL Hygromycin, 24 hours post transfection. Single clones are isolated and screened for BLT1 expression and function using Western Blot analysis and Fluorometric Imaging Plate Reader (FLIPR®) calcium release assay.
Chinese hamster ovary (CHO-K1) cells stably expressing the high-affinity (BLT1) LTB4 receptor are seeded at 10,000 cells/well in a 96 well plate (Corning) in growth medium containing DMEM/F-12 (3:1) w/o phenol red (Invitrogen), 5% fetal bovine serum (FBS) (Hyclone), 20 mM HEPES (Invitrogen), 200 μg/mL Hygromycin B (Invitrogen) and 40 μg/mL L-Proline (Sigma). The plate is incubated for 22-24 h at 37° C. 5% CO2 then growth medium is replaced with 50 μL/well of test medium containing Roswell Park Memorial Institute (RPMI) RPMI-1640 w/o phenol red, 20 mM HEPES (both from Invitrogen), and 0.2% w/v Bovine Serum Albumin (Sigma). […]

[2] = test system: CaCl2-induced abdominal aortic aneurysm; experiment: CaCl2-induced AAA animal efficacy model, mice; type: in vivo, 129SvEv mice; conditions: 28 days, aortic lumenal perimeter
From the text: A targeted application of a calcium chloride solution to the mouse aorta induces vessel dilatation Chiou et al. J. Surg. Res. (2001), 99: 371-376; Lomgo et al. J. Clin. Invest. (2002), 110: 625-632. Two weeks after treatment, the vessel dilatation compared to the original vessel diameter becomes statistically significant, with up to 75% increase of aortic lumenal perimeter after 4 weeks. Calcium precipitates have been localized primarily within the elastic network of the media. Disruption of this structure by the calcium-elastic tissue complex weakens the vessel wall, contributing to aneurysm formation. This injury also serves as a proinflammatory stimulus, recruiting neutrophils, lymphocytes, monocytes, and mast cells.
Mice: 129SvEv males, 7 weeks of age, are acquired from Taconic Farms, Germantown, N.Y., USA.
Aneurysm Induction Model: All procedures are performed in accordance with Eli Lilly and Company Institutional Animal Care and Use guidelines. Upon their arrival, animals have a one week acclimation period during which they have ad libitum access to standard rodent chow (Purina #2014) and house water. Following the acclimation period, animals are anesthetized with isoflurane, and a laparotomy is performed for the CaCl2-stimulated induction of the abdominal aortic aneurysm (AAA). […] Interior cross sectional lumenal perimeter measurements (mm) are collected at that point to assess efficacy and statistically analyzed with JMP® 7 software (Cary, N.C.). Statistical Analysis: Measurements of lumenal perimeter are expressed as mean values±SE. […]
The efficacy signal window in the CaCl2-induced abdominal aortic aneurysm model is determined by the lumenal perimeter of the aorta in mice treated with saline-soaked gauze followed by 4-weeks dosing with vehicle that determines 100% efficacy (“Sham Vehicle”) and the lumenal perimeter of the aorta in mice treated with CaCl2-soaked gauze followed by 4-weeks dosing with vehicle (“Vehicle”) that determines 0% efficacy.

T1 sequence (Q15722 whole entry): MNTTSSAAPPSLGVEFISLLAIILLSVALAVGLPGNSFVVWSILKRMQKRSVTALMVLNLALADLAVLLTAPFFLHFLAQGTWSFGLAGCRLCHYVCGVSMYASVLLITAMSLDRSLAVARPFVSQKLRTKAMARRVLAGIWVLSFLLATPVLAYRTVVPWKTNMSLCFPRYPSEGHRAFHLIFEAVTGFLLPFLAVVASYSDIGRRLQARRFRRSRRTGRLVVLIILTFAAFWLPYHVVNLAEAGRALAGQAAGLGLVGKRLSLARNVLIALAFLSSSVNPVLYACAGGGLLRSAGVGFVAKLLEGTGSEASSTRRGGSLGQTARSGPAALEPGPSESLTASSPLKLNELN

## CCCc1c(NC(=O)CC(C)(C)C(=O)[O-])cccc1OCCCOc1cc(O)c(-c2ccc(F)cc2)cc1CC.[Na+] [Example 2, Sodium 4-[[3-[3-[2-ethyl-4-(4-fluorophenyl)-5-hydroxy-phenoxy]propoxy]-2-propyl-phenyl]amino]-2,2-dimethyl-4-oxo-butanoate]
[1]; read-out: inhibition of LTB4-induced calcium mobilization Kb
  Kb: 0.98 nM
[1]; read-out: inhibition of LTB4-induced calcium mobilization relative IC50
  pIC50: 8.19
[2]; 10 mg/kg b.i.d. oral gavage
  % Reduced (±S.E.) of AAA: 41% ± 13
[2]; 30 mg/kg b.i.d. oral gavage
  % Reduced (±S.E.) of AAA: 48% ± 10
[2]; 60 mg/kg b.i.d. oral gavage
  % Reduced (±S.E.) of AAA: 58% ± 13
